Measured values as given in paper PMC7179180, “Novel 2,4-Disubstituted-1,3-Thiazole Derivatives: Synthesis, Anti-Candida Activity Evaluation and Interaction with Bovine Serum Albumine” (Molecules, 2020).

Target: T1, bovine serum albumin (BSA) (Bos taurus, UniProt P02769)
T1 construct: gene ALB; native plasma protein, commercial BSA fraction V (Merck), mature single chain of 583 residues, no further purification
Experiment: Trp fluorescence quenching
Type: binding
Conditions: pH 7.4, room temperature, BSA 1.5 μM, double-log
From the text: Trp fluorescence quenching on bovine serum albumin (BSA)

T1 sequence (P02769 25-607): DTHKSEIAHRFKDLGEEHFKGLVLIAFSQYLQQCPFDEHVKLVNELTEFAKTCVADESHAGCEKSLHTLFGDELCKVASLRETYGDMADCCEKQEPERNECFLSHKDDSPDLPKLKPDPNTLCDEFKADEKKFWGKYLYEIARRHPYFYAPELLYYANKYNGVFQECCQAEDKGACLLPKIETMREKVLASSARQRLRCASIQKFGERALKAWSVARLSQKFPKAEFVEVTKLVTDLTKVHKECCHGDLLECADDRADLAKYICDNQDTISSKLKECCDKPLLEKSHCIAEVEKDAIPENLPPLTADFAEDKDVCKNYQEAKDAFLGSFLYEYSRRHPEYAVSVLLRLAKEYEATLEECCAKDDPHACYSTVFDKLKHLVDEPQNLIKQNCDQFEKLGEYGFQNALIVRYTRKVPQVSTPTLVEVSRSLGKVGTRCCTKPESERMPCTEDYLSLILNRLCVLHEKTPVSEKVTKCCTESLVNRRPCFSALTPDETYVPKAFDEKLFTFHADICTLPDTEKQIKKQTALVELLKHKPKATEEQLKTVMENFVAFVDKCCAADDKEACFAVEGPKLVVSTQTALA

Compound	Kb × 10^4 (M^-1)
COc1ccc(-c2csc(COc3cc(C)ccc3C(C)C)n2)cc1 [4a, 2-((2-isopropyl-5-methylphenoxy)methyl)-4-(4-methoxyphenyl)thiazole]	6.60 × 10^4 M^-1
Cc1ccc(C(C)C)c(OCc2nc(-c3ccc(Br)cc3)cs2)c1 [4c, 4-(4-bromophenyl)-2-((2-isopropyl-5-methylphenoxy)methyl)thiazole]	2.61 × 10^4 M^-1
Cc1ccc(C(C)C)c(OCc2nc(-c3ccc4ccccc4c3)cs2)c1 [4d, 2-((2-isopropyl-5-methylphenoxy)methyl)-4-(naphthalen-2-yl)thiazole]	8.51 × 10^4 M^-1
Cc1ccc(C(C)C)c(OCc2nc(-c3ccc(Cl)cc3)cs2)c1 [4b, 4-(4-chlorophenyl)-2-((2-isopropyl-5-methylphenoxy)methyl)thiazole]	6.98 × 10^4 M^-1

Continued, values first:

Kb × 10^4 (M^-1)	Compound
9.14 × 10^4 M^-1	Cc1ccc(C(C)C)c(OCC(=NNc2nc(-c3ccc4ccccc4c3)cs2)c2ccccc2)c1 [7d, 2-(2-(2-(2-isopropyl-5-methylphenoxy)-1-phenylethylidene)hydrazineyl)-4-(naphthalen-2-yl)thiazole]
1.85 × 10^4 M^-1	Cc1ccc(C(C)C)c(OCC(=NNc2nc(-c3ccc(Br)cc3)cs2)c2ccccc2)c1 [7c, 4-(4-bromophenyl)-2-(2-(2-(2-isopropyl-5-methylphenoxy)-1-phenylethylidene)hydrazineyl)thiazole]
5.64 × 10^4 M^-1	COc1ccc(-c2csc(NN=C(COc3cc(C)ccc3C(C)C)c3ccccc3)n2)cc1 [7a, 2-(2-(2-(2-isopropyl-5-methylphenoxy)-1-phenylethylidene)hydrazineyl)-4-(4-methoxyphenyl)thiazole]
18.02 × 10^4 M^-1	Cc1ccc(C(C)C)c(OCC(=NNc2nc(-c3ccc(Cl)cc3)cs2)c2ccccc2)c1 [7b, 4-(4-chlorophenyl)-2-(2-(2-(2-isopropyl-5-methylphenoxy)-1-phenylethylidene)hydrazineyl)thiazole]
